Results taken from patent publication US11912693B2, “Compounds for modulating S1P1 activity and methods of using the same” (TREVENA, INC., priority 2017, dated 2024).

Tested on: A2780 human ovarian carcinoma
Assay: A2780 human ovarian carcinoma xenograft tumor growth delay in athymic nude mice
Conditions: 60-day study
Experimental: Female athymic nude mice (Crl:NU(NCr)-Foxnlnu, Charles River Laboratories) were implanted with A2780 human ovarian carcinoma cells to initiate tumor growth.
Each mouse received 1×10^7 cells (0.1 mL cell suspension) subcutaneously in the right flank, and tumors were monitored as their volumes approached the target range of 100 to 150 mm3. Fourteen days later, designated as Day 1 of the study, mice were sorted into six groups of ten each. […] Tumors were measured twice weekly for the study duration.
Starting on Day 1 of the study, six groups (n=10) of female athymic nude mice with established A2780 tumors were treated according to the following plan. Treatments were administered either by intravenous injection (i.v.) or oral gavage (p.o.) and were adjusted to the body weight of the individual animal. Group 1 received Vehicle 1, i.v., once every other day for five doses (qod×5) and Vehicle 2, p.o., once daily to the end of the study (qd to end), and served as the control group for efficacy analysis. Group 2, the paclitaxel monotherapy group, received paclitaxel i.v., qod×5 plus Vehicle 2, p.o., qd to end. Group 3, the ozanimod monotherapy group, received ozanimod p.o., qd to end plus Vehicle 1, i.v., qod×5. Combination Group 4 received ozanimod p.o., qd to end plus paclitaxel i.v., qod×5.
Animals were monitored individually, and each mouse was euthanized when its tumor reached the endpoint volume of 2000 mm3 or on the final day, whichever came first. The time to endpoint (TTE) was calculated for each mouse. Treatment outcome was determined from percent tumor growth delay (% TGD), defined as the percent increase in median TTE for treated versus control mice, with differences in TTE values between groups deemed statistically significant at P<0.05 using logrank survival analysis. Mice were also monitored for complete regression (CR) and partial regression (PR) responses. An animal with a CR at the end of the study was additionally classified as a tumor-free survivor (TFS). Treatment tolerability was assessed by body weight measurements and frequent observation for clinical signs of treatment-related side effects.

## CCC1(CC)CC(=O)c2cc(-c3nc(-c4cccnc4)no3)ccc2O1 [Compound 103, 2,2-diethyl-6-[3-(pyridin-3-yl)-1,2,4-oxadiazol-5-yl]-3,4-dihydro-2H-1-benzopyran-4-one]
Monotherapy vs control, paclitaxel i.v. qod×5, ozanimod or Compound 103 p.o. qd to end
  percent tumor growth delay (% TGD), monotherapy: 15%
n=10 per group, animals surviving the study
  study survivors: One
